Measured values from US8703790B2, “Bis [O-(14-benzoylaconine-8-yl)] esters” (priority 2008, dated 2014).

Columns and labels:
A549 (lung cancer) = assay: In vitro cytotoxicity test (MTT) against human tumour cell line A549; format: cell-based; conditions: A549, 24 h contact, 48 h re-growth
Protocol: (§1) Human tumour cell lines A549 (lung cancer), HCT-15 (colon cancer) and MCF-7 (breast cancer) have been obtained from the Developmental Therapeutics Program of the National Cancer Institute (Rockville, Md., USA). Cells were routinely grown with RPMI 1640 medium supplemented with 10% foetal calf serum, both obtained from Biochrom AG (Berlin, Germany). They were grown on Petri dishes (Nunc, Denmark) at 37° C. in a humidified atmosphere containing 5% CO2. Cells were replicated every 4 days and the medium changed once in-between.
(§2) Cytotoxicity has been evaluated on exponentially growing cells grown for 24 h in presence of the compounds to be tested. Briefly, 4000 cells were seeded in 96-well plates with 200 μL of complete medium; 24 hours later the medium was supplemented with a series of different concentrations of compounds and the contact maintained for 24 h. Compounds were dissolved in pure water and sterilised using polycarbonate membrane filters of 0.22 μm (Millipore, Molsheim, France). The cells were then allowed to re-grow for 48 hours; viable and metabolically active cells were quantitatively estimated by coloration with the MTT dye (1-(4,5-dimethylthyazol-2-yl)-3,5-diphenylformazan), Sigma-Aldrich Chimie, Saint-Quentin-Fallavier, France). The amount of substance allowing a 50% decrease in cell numbers is indicative of the cytotoxicity and represents the IC50 of compound.

HCT-15 (colon cancer) = assay: In vitro cytotoxicity test (MTT) against human tumour cell line HCT-15; format: cell-based; conditions: HCT-15, 24 h contact, 48 h re-growth
Protocol: as §1, §2

MCF-7 (breast cancer) = assay: In vitro cytotoxicity test (MTT) against human tumour cell line MCF-7; format: cell-based; conditions: MCF-7, 24 h contact, 48 h re-growth
Protocol: as §1, §2

A549 = conditions: A549, NCI data base values; cited from earlier work
HCT-15 = conditions: HCT-15, NCI data base values; cited from earlier work
MCF-7 = conditions: MCF-7, NCI data base values; cited from earlier work
mouse tumours = mouse tumours in vivo; cited from earlier work
[1] = test system: mitochondrial oxidoreductases; conditions: tumour cells; Picardo et al. 1985; cited from earlier work
[2] = test system: HTC-15 (colon cancer), A549 (lung cancer), MCF-7 (breast cancer); conditions: HTC-15, A549, MCF-7; publication A. Chodoeva et al.; read-out: IC50 in these three cell lines; cited from earlier work
[3] = background statement; cited from earlier work

| Structure (SMILES) | IC50 (A549 (lung cancer)) [µM] | IC50 (HCT-15 (colon cancer)) [µM] | IC50 (MCF-7 (breast cancer)) [µM] | IC50 (A549) [µM] | IC50 (HCT-15) [µM] | IC50 (MCF-7) [µM] | also measured |
| --- | --- | --- | --- | --- | --- | --- | --- |
| CCN1C[C@]2(COC)[C@H](O)C[C@H](OC)[C@]34C1[C@H]([C@H](OC)[C@H]23)[C@]1(OC(=O)CCCCCC(=O)O[C@]23[C@H]5[C@@H](OC(=O)c6ccccc6)[C@](O)(C[C@H]5[C@@]56C7[C@@H]2[C@H](OC)[C@@H]5[C@](COC)(CN7CC)[C@H](O)C[C@@H]6OC)[C@@H](OC)[C@@H]3O)[C@H]2[C@@H](OC(=O)c3ccccc3)[C@](O)(C[C@H]24)[C@@H](OC)[C@@H]1O [PDD, bis[O-(14-benzoylaconine-8-yl)]-pimelate] | 3.76 | 3.76 | 7.5 |  |  |  |  |
| O=c1[nH]cc(F)c(=O)[nH]1 [5-FU, fluorouracil] |  |  |  | 2.11 | 5.69 | 1.75 |  |
| N.N.[Cl][Pt][Cl] [cisplatin] |  |  |  | 3.08 | 7.21 | 3.01 |  |
| CCN1C[C@]2(COC)[C@H](O)C[C@H](OC)[C@]34C1[C@H]([C@H](OC)[C@H]23)[C@]1(OC(=O)CCCCCCCC(=O)O[C@]23[C@H]5[C@@H](OC(=O)c6ccccc6)[C@](O)(C[C@H]5[C@@]56C7[C@@H]2[C@H](OC)[C@@H]5[C@](COC)(CN7CC)[C@H](O)C[C@@H]6OC)[C@@H](OC)[C@@H]3O)[C@H]2[C@@H](OC(=O)c3ccccc3)[C@](O)(C[C@H]24)[C@@H](OC)[C@@H]1O [ADD, bis[O-(14-benzoylaconine-8-yl)]-azelate] | 19.1 | 22 | 15.5 |  |  |  |  |
| N[C@@H](Cc1ccc(N(CCCl)CCCl)cc1)C(=O)O [mephalan] |  |  |  | 28.7 | 39.4 | 11.1 |  |
| O=C(O)CCCCCCCC(=O)O [Azelaic acid, azelaic acid] |  |  |  |  |  |  | antitumour activity (mouse tumours): total absence of antitumour activity; inhibition of mitochondrial oxidoreductases [1]: inhibitor of mitochondrial oxidoreductases |
| CCN1CC2(COC)C(O)CC(OC)C34C5CC6(O)C(OC)C(O)C(OC(=O)CCCCCCCC(=O)O)(C5C6OC(=O)c5ccccc5)C(C(OC)C23)C14 (stereo not shown) [8-O-azeloyl-14-benzoylaconine, reference compound] | 16.8 | 19.4 | 10.3 |  |  |  | IC50 [2]: 10 to 18 µM |
| COc1cc([C@@H]2c3cc4c(cc3[C@@H](O[C@@H]3O[C@@H]5CO[C@@H](C)O[C@H]5[C@H](O)[C@H]3O)[C@H]3COC(=O)[C@H]23)OCO4)cc(OC)c1O [etoposide] |  |  |  | 3.61 | 17.6 | 5.73 |  |
| CCN1C[C@]2(COC)[C@H](O)C[C@H](OC)[C@]34C1[C@H]([C@H](OC)[C@H]23)[C@]1(O)[C@H]2[C@@H](O)[C@](O)(C[C@H]24)[C@@H](OC)[C@@H]1O [Aconine] |  |  |  |  |  |  | antiproliferative activity [3]: devoid of antiproliferative activity |
